Laboratory results as given in US20180284095A1, “BIOMARKERS ASSOCIATED WITH LSD1 INHIBITORS AND USES THEREOF” (Oryzon Genomics, S.A., priority 2015, published 2018).

What was measured:
Format in all cases: in vivo, mouse
[1] = test system: TUBB3; assay: Microarray gene expression, hippocampus of SAMP8 mice (Example 3), housekeeping gene; settings: SAMP8 female pool
Description: (§1) Total RNA was extracted from samples using the RNeasy extraction kit (Qiagen). The quality and concentration of the RNA was analyzed using the Agilent 2100 bioanalyzer and NanoDrop™ ND-1000 (Thermo Scientific). Samples with RNA integrity number (RIN)<6.0 were discarded. Total RNA (0.5 μg) amplification and labelling with Cy3 or Cy5 was carried out using the Eberwein mRNA amplification procedure (Van Gelder et al, Proc Natl Acad Sci USA 1990, 87:1663-1667) employing the MessageAmp™ aRNA amplification kit from Ambion (Applied Biosystems) following the manufacturer's instructions with minor modifications. As hybridization controls, plant mRNAs were transcribed from a plasmid containing the Zea mays Xet (xyloglucan endo-transglycosylase) cDNA and from a plasmid containing the Zea mays Zmmyb42 cDNA, independently prepared Cy3 and Cy5 labelled aRNA from these two RNAs using the Eberwein mRNA amplification procedure (as disclosed in Cerdà et al, Gen Comp Endocrinol 2008, 156:470-481).
(§2) The Cy3- and Cy5-labelled cRNAs and spikes were combined and hybridized to the microarray described in Example 2.6 for 17 h at 60° C. using Agilent's gaskets G2534-60002, G2534A hybridization chambers and DNA Hybridization Oven G2545A, according to the manufacturer's instructions. More specifically, equal amounts of Cy3 and Cy5 labeled Xet aRNA as well as equal amounts of Cy3 and Cy5 labeled Zmmyb42 aRNA were spiked into each mixture hybridized to the array. Arrays were washed and raw data were obtained using Agilent's DNA Microarray Scanner G2505B and Feature Extraction software (v10.1). The raw fluorescence intensity data were processed using applicant's proprietary software, and consists in the following operations:
(§3) Data normalization was carried out by an improved version of the nonlinear Q-splines normalization method (Workman et al., Genome Biol 2002, 3(9):research0048.1-0048.16). Normalization results were presented graphically as MA plots, as first described by Dudoit et al (Dudoit et al, Statistica Sinica, 2002, 12:111-139). Each point corresponds to a probe of the DNA array. M values (vertical axis) are the log-differential expression ratios. A values (horizontal axis) are the log-intensities of the spots. M and A are calculated from the Cy5 and Cy3 intensity values as of each spot. The DNA Array data is normalized using an improved version of non-linear Q-Splines normalization described by Workman et al., Genome Biol 2002, 3(9):research0048.1-0048.16. This process is useful to correct the deviation of the M values from the statistical assumption that most of the spots have M=0 in MA plots. The method allows the adjustment of all M values to form a cloud centered at M=0 in all intensity ranges. The data used to calculate the normalization fitting curve is the totality of the raw measurement dataset, excluding the signals for the probes for the spiked-in plant RNA controls and negative controls. In order to be able to normalize properly the data among all the experiments, the probe-set must include an important group of genes that should have no change (M=0) in the experiment. The normalization function is then applied to all the data, including controls.
(§4) Normalized and log-transformed data were used to calculate log 2 (sample/control) and Fold Change (FC) values. No background subtraction was applied to the signal intensity values during data processing, permitting robust selection of differentially expressed genes with low expression levels at the cost of potential sub-estimation of change when intensity levels are close to the array background level.
(§5) The technical replicate analysis is the statistical processing of the microarray data. Replicates were calculated to measure oligo replicates on an array or between replicates of experiments on different arrays (i.e. hybridization of the same sample). […]

[2] = test system: TUBB2C; assay: as above; settings: SAMP8 female pool
Description: as §1, §2, §3, §4, §5

[3] = test system: S100A8; assay: qRT-PCR, hippocampus of SAMP8 mice (Example 5); settings: SAMP8 female mice
Excerpt: (§6) qRT-PCR is a variant of the PCR (Polymerase Chain Reaction) method that permits the simultaneous exponential amplification and detection of specific cDNA fragments. The Taqman gene expression assays employ the principle of doubly labeled hydrolysis probes. The probes are marked with a fluorescent moiety at their 5′ end and with a quencher moiety at the 3′ end, which prevents the generation of fluorescence according to the Förster energy transfer principle.
(§7) During the amplification process, the hydrolysis probe hybridizes to its complementary sequence in the target amplicon. During each cycle, the Taq polymerase initiates the production of a copy of the target sequence starting from the primer. When the Taq polymerase reaches the hydrolysis probe, its 5′-3′ exonuclease activity fragments the hydrolysis probe, and liberates the fluorescent group from the quencher moiety, resulting in the emission of a fluorescent signal.
(§8) In the exponential phase of the amplification reaction, the intensity of the fluorescence is directly proportional to the quantity of PCR product formed. The LightCycler® 480 Software determines the “crossing point” (Cp), i.e. the point where the reaction's fluorescence reaches the maximum of the second derivative of the amplification curve, which corresponds to the point where the acceleration of the fluorescence signal is at its maximum. […] The 2-Cp values are proportional to the target mRNA concentration in the original RNA sample.
(§9) Samples from animals receiving treatment for 2 months and 4 months were processed and statistically analyzed together. After extraction (RNeasy Mini KIT; QIAGEN), total RNA was reverse transcribed to obtain 1st strand cDNA (High Capacity RNA-to-cDNA Master Mix; Applied Biosystems). A serial dilution of 1st strand product from hippocampus was used to perform triplicate qRT-PCR (Taqman gene expression assay, Life technologies) reactions to analyze the Cp values of S100A8 and S100A9. Cp increase was normalized relative to the expression level of an endogenous reference gene (GADPH).

[4] = test system: S100A9; assay: qRT-PCR, hippocampus of SAMP8 mice (Example 5); settings: 2 or 4 months
Excerpt: as §6, §7, §8, §9

[5] = test system: SAMP8 mice; assay: Platelet levels (hemogram) in SAMP8 mice
Description: It is known that LSD1 is implicated in normal hematopoiesis (SprDssel et al, Leukemia 2012, 26(9)2039-51). […] The mice were sacrificed and blood was collected in sodium citrate-containing tubes for hemogram analysis. Platelets levels were determined in a standard hematology analyzer (Abacus Junior Vet, from Diatron) following the manufacturer's instructions.

## (−) 5-((((trans)-2-(4-(benzyloxy)phenyl)cyclopropyl)amino)methyl)-1,3,4-oxadiazol-2-amine [Compound 1]
[1]; HD 3.2 mg/kg/day
  Hybridization signal sample_Cy5 TUBB3: 3168.4
[1]; HD 3.2 mg/kg/day vs SAMP8 VEH
  log2 (sample/control) TUBB3: 0.05769
[1]; LD 0.96 mg/kg/day
  Hybridization signal sample_Cy5 TUBB3: 3002.3
[1]; LD 0.96 mg/kg/day vs SAMP8 VEH
  log2 (sample/control) TUBB3: 0.04498
[2]; HD 3.2 mg/kg/day
  Hybridization signal sample_Cy5 TUBB2C: 9173
[2]; HD 3.2 mg/kg/day vs SAMP8 VEH
  log2 (sample/control) TUBB2C: 0.1327
[2]; LD 0.96 mg/kg/day
  Hybridization signal sample_Cy5 TUBB2C: 9392.47
[2]; LD 0.96 mg/kg/day vs SAMP8 VEH
  log2 (sample/control) TUBB2C: 0.1199
[3]
  S100A8 expression (qRT-PCR): down-regulated S100A8 expression tendency
[4]; SAMP8 females, 0.96 mg/kg/day (p<0.001) and 3.2 mg/kg/day (p<0.001)
  S100A9 expression (Δ Cp, qRT-PCR): down-regulated S100A9 expression in a dose-dependent fashion
[4]; SAMP8 females, 0.96 mg/kg/day (p<0.001) and 3.2 mg/kg/day (p<0.001), listed as compound 1
  S100A9 expression (Δ Cp, qRT-PCR): reduction of S100A9 expression
[4]; SAMP8 males, 0.96 mg/kg (p<0.001), 0.96 mg/kg
  S100A9 expression (Δ Cp, qRT-PCR): down-regulated S100A9 expression
[4]; SAMP8 males, 0.96 mg/kg (p<0.001), listed as compound 1, 0.96 mg/kg
  S100A9 expression (Δ Cp, qRT-PCR): reduction of S100A9 expression
[5]; SAMP8, HD (3.2 mg/kg/day)
  platelet levels: significant reduction of platelet levels
[5]; SAMP8, LD (0.96 mg/kg/day)
  platelet levels: no significant reduction of platelet levels
[5]; SAMP8 males, 0.96 mg/kg/day, 16 weeks (4 months), vs vehicle-treated SAMP8, 0.96 mg/kg/day
  platelet levels: no statistically significant effects
[5]; SAMP8 males, 0.96 mg/kg/day, 16 weeks (4 months), vs vehicle-treated SAMP8, listed as compound 1, 0.96 mg/kg/day
  platelet levels: no changes in the platelet blood count
